# Test system: Plasmodium berghei
# Assay: Luciferase/luciferin-expressing antifolate-resistant parasites were used to infect a culture of HepG2 cells that were pre-incubated with compounds. Infected hepatocytes emit light due to the luciferase reaction. Assay results are presented as the percent inhibition of light emission compared to control. […]
# Assay type: functional
# Settings: sporozoite; for IC90: read-out: LUCIFERASE INFECTION ASSAY - IC90
# [1] = read-out: LUCIFERASE INFECTION ASSAY - IC50
structure (smiles),measurement,setting,value
CC(Nc1ccnc2cc(Cl)ccc12)c1ccccc1Cl (stereo not drawn),IC50,"PBLUC_HILL_SLOPE 22.7, PBLUC_R_SQUARED 0.0753, read-out: LUCIFERASE INFECTION ASSAY - IC50",3.27 µM
same,IC90,,3.6 µM
CCN(c1ccccc1)S(=O)(=O)c1ccc(OCC(=O)N(C)Cc2nc3ccccc3s2)cc1,IC50,"PBLUC_HILL_SLOPE 9.53, PBLUC_R_SQUARED 0.61, read-out: LUCIFERASE INFECTION ASSAY - IC50",9.27 µM
same,IC90,,> 10 µM
CN(C)C(=O)c1ccc(-c2ccnc3n[nH]c(-c4ccc(N(C)C)cc4)c23)cc1,IC50,"HEPG2TOX_HILL_SLOPE 14.4, HEPG2TOX_R_SQUARED 0.857, PBLUC_HILL_SLOPE 6.94, PBLUC_R_SQUARED 0.445, read-out: LUCIFERASE INFECTION ASSAY - IC50",3.69 µM
same,IC90,,5.06 µM
CNc1nc2cnc(Nc3cccc(N(C)C)c3)cc2n1-c1ccccc1,IC50,[1],> 10 µM
same,IC90,,> 10 µM
O=C(c1c[nH]c2ccccc12)C(NCc1ccc(F)cc1)c1ccccc1 (stereo not drawn),IC50,[1],> 10 µM
same,IC90,,> 10 µM
NC(Cc1ccccc1)c1csc(Nc2ccc(C(=O)c3ccccc3)cc2)n1 (stereo not drawn),IC50,"HEPG2TOX_HILL_SLOPE 7.62, HEPG2TOX_R_SQUARED 0.882, PBLUC_HILL_SLOPE 15.6, PBLUC_R_SQUARED 0.562, read-out: LUCIFERASE INFECTION ASSAY - IC50",1 µM
same,IC90,,1.15 µM
CCn1c(NC(=O)CCc2ccc3c(c2)OCCO3)nc2ccccc21,IC50,"PBLUC_HILL_SLOPE 14.7, PBLUC_R_SQUARED 0.597, read-out: LUCIFERASE INFECTION ASSAY - IC50",9.02 µM
same,IC90,,> 10 µM
COc1ccccc1CNC(=O)c1cc(Cl)ccc1OC,IC50,[1],> 10.8 µM
same,IC90,,> 10.8 µM
CC(CNC(=O)C1(C)CC1(Cl)Cl)N(C)c1ccccc1 (stereo not drawn),IC50,[1],> 10 µM
same,IC90,,> 10 µM
FC(F)(F)c1nc2ccccc2n2c(-c3ccc(Br)cc3)nnc12,IC50,[1],> 8.39 µM
same,IC90,,> 8.39 µM
CCCc1cc(=O)n2nc(Cc3ccccc3)c(-c3ccccc3)c2[nH]1,IC50,"HEPG2TOX_HILL_SLOPE 6.09, HEPG2TOX_R_SQUARED 0.391, read-out: LUCIFERASE INFECTION ASSAY - IC50",> 9.61 µM
same,IC90,,> 9.61 µM
Fc1ccc(-c2cs/c(=N\CC3CCCO3)n2/N=C/c2ccccc2F)cc1 (stereo not drawn),IC50,"HEPG2TOX_HILL_SLOPE 2.73, HEPG2TOX_R_SQUARED 0.938, PBLUC_HILL_SLOPE 4.49, 0.768, PBLUC_R_SQUARED 0.141, 0.452, read-out: LUCIFERASE INFECTION ASSAY - IC50",5.54 µM
same,IC90,,> 10 µM
FC(F)(F)Oc1cccc(-c2ccc3ncc(-c4cccnc4)n3n2)c1,IC50,"PBLUC_HILL_SLOPE 3.42, PBLUC_R_SQUARED 0.748, read-out: LUCIFERASE INFECTION ASSAY - IC50",1.76 µM
same,IC90,,3.34 µM
CC(=C(C#N)C#N)c1ccc(Cl)cc1,IC50,"FFLUC_HILL_SLOPE 16.5, FFLUC_R_SQUARED 0.121, read-out: LUCIFERASE INFECTION ASSAY - IC50",> 16.3 µM
same,IC90,,> 16.3 µM
O=S(=O)(NCC(Sc1nnc(Nc2ccccc2)s1)c1ccccc1)c1ccc(Cl)cc1 (stereo not drawn),IC50,"PBLUC_HILL_SLOPE 13.6, PBLUC_R_SQUARED 0.626, read-out: LUCIFERASE INFECTION ASSAY - IC50",9.35 µM
same,IC90,,> 10 µM
CC(C)c1ccccc1NC(=O)Nc1nc(C(N)Cc2ccc(C(F)(F)F)cc2)cs1 (stereo not drawn),IC50,"PBLUC_HILL_SLOPE 1.06, PBLUC_R_SQUARED 0.663, read-out: LUCIFERASE INFECTION ASSAY - IC50",1.89 µM
same,IC90,,> 7.36 µM
CCCn1c(NC(=O)C2CCCCN2S(=O)(=O)c2ccccc2)nc2ccccc21 (stereo not drawn),IC50,"PBLUC_HILL_SLOPE 7.3, PBLUC_R_SQUARED 0.749, read-out: LUCIFERASE INFECTION ASSAY - IC50",5.71 µM
same,IC90,,7.71 µM
COc1cccc(N(C(=O)c2ccc3c(c2)OCO3)c2nc(-c3ccc(Cl)cc3Cl)cs2)c1,IC50,"FFLUC_HILL_SLOPE 8.73, FFLUC_R_SQUARED 0.44, PBLUC_HILL_SLOPE 14.1, PBLUC_R_SQUARED 0.181, read-out: LUCIFERASE INFECTION ASSAY - IC50",8.64 µM
same,IC90,,> 10 µM
Cc1cc(N2CCN(C(=O)c3cc(C4CC4)nn3-c3ccccc3)CC2)nc(C(C)C)n1,IC50,"HEPG2TOX_HILL_SLOPE 7.58, HEPG2TOX_R_SQUARED 0.717, PBLUC_HILL_SLOPE 1.92, PBLUC_R_SQUARED 0.299, read-out: LUCIFERASE INFECTION ASSAY - IC50",4.83 µM
same,IC90,,> 10 µM
CSc1ncc(Nc2nc(-c3ccccc3)c(-c3ccccc3)s2)cn1,IC50,"PBLUC_HILL_SLOPE 14.9, PBLUC_R_SQUARED 0.41, read-out: LUCIFERASE INFECTION ASSAY - IC50",3.61 µM
same,IC90,,4.18 µM
CCn1nnc2cc(C(=O)Nc3cc(C(F)(F)F)ccc3N(C)C)ccc21,IC50,"PBLUC_HILL_SLOPE 154, PBLUC_R_SQUARED 0.344, read-out: LUCIFERASE INFECTION ASSAY - IC50",7.63 µM
same,IC90,,7.74 µM
COc1ccc(CC(=O)N2CCC3(CC2)OCc2ccccc2O3)cc1,IC50,"FFLUC_HILL_SLOPE 13.5, FFLUC_R_SQUARED 0.0841, HEPG2TOX_HILL_SLOPE 0.312, HEPG2TOX_R_SQUARED 0.567, read-out: LUCIFERASE INFECTION ASSAY - IC50",> 9.34 µM
same,IC90,,> 9.34 µM
COc1cc(OC)cc(-c2cn3c(-c4cccc(N(C)C)c4)cnc3cn2)c1,IC50,"PBLUC_HILL_SLOPE 11.4, PBLUC_R_SQUARED 0.677, read-out: LUCIFERASE INFECTION ASSAY - IC50",7.8 µM
same,IC90,,> 8.81 µM
CN1/C(=C\C(=O)CCCSc2nnc(-c3ccccc3)n2N)C(C)(C)c2ccccc21,IC50,"FFLUC_HILL_SLOPE 2.28, FFLUC_R_SQUARED 0.541, HEPG2TOX_HILL_SLOPE 7.74, HEPG2TOX_R_SQUARED 0.566, PBLUC_HILL_SLOPE 1.71, PBLUC_R_SQUARED 0.591, read-out: LUCIFERASE INFECTION ASSAY - IC50",3.64 µM
same,IC90,,> 10 µM
Nc1nccnc1C(=O)Nc1nc2cc3c(cc2s1)OCCO3,IC50,"HEPG2TOX_HILL_SLOPE 1.04, HEPG2TOX_R_SQUARED 0.527, PBLUC_HILL_SLOPE 12.4, 0.362, PBLUC_R_SQUARED 0.835, 0.759, read-out: LUCIFERASE INFECTION ASSAY - IC50",0.197 µM
same,IC90,,0.434 µM
CC(Sc1nc(Nc2ccccc2)c2ccccc2n1)C(=O)Nc1sccc1C#N (stereo not drawn),IC50,"HEPG2TOX_HILL_SLOPE 2.3, HEPG2TOX_R_SQUARED 0.812, read-out: LUCIFERASE INFECTION ASSAY - IC50",> 10 µM
same,IC90,,> 10 µM
Cc1ccc(SCc2ccc(-c3nc4ccccc4s3)cc2)cc1,IC50,"PBLUC_HILL_SLOPE 1.56, PBLUC_R_SQUARED 0.316, read-out: LUCIFERASE INFECTION ASSAY - IC50",4.39 µM
same,IC90,,> 9.5 µM
CC(NC(=O)NC(=O)c1ccccc1)C1CC2CCC1C2 (stereo not drawn),IC50,[1],> 10 µM
same,IC90,,> 10 µM
C=CCN(c1ccccc1)S(=O)(=O)c1cccc(C(=O)Nc2ccnn2C(C)C2CC2)c1 (stereo not drawn),IC50,"HEPG2TOX_HILL_SLOPE 0.485, HEPG2TOX_R_SQUARED 0.701, PBLUC_HILL_SLOPE 1.26, PBLUC_R_SQUARED 0.254, read-out: LUCIFERASE INFECTION ASSAY - IC50",> 10 µM
same,IC90,,> 10 µM
O=C(Nc1ccccc1Cc1ccccc1)c1cc2c(nc3sccn32)s1,IC50,"PBLUC_HILL_SLOPE 1.68, PBLUC_R_SQUARED 0.818, read-out: LUCIFERASE INFECTION ASSAY - IC50",1.32 µM
same,IC90,,4.88 µM
Cn1ccc2cc(-c3cn4c(-c5cccc(CO)c5)cnc4cn3)ccc21,IC50,"HEPG2TOX_HILL_SLOPE 0.928, HEPG2TOX_R_SQUARED 0.91, PBLUC_HILL_SLOPE 2.22, PBLUC_R_SQUARED 0.697, read-out: LUCIFERASE INFECTION ASSAY - IC50",0.452 µM
same,IC90,,1.22 µM
Cc1cc(C(C)(C)C)cc(C)c1CCNC(=O)c1ccc[n+]([O-])c1,IC50,[1],> 10 µM
same,IC90,,> 10 µM
O=C1NC(=O)/C(=C/c2cccc(C#Cc3ccccc3)c2)S1,IC50,"PBLUC_HILL_SLOPE 1.96, PBLUC_R_SQUARED 0.068, read-out: LUCIFERASE INFECTION ASSAY - IC50",6.6 µM
same,IC90,,> 10.8 µM
O=C(Nc1nccs1)c1cc(-c2ccccc2)c(C(F)(F)F)s1,IC50,"HEPG2TOX_HILL_SLOPE 4.77, HEPG2TOX_R_SQUARED 0.804, PBLUC_HILL_SLOPE 25.8, PBLUC_R_SQUARED 0.401, read-out: LUCIFERASE INFECTION ASSAY - IC50",7.96 µM
same,IC90,,8.66 µM
Cc1cc(C)nc(N/N=C/c2cn(-c3ccccc3)nc2-c2ccc3c(c2)OCCO3)n1,IC50,"HEPG2TOX_HILL_SLOPE 17.9, HEPG2TOX_R_SQUARED 0.773, PBLUC_HILL_SLOPE 3.73, PBLUC_R_SQUARED 0.671, read-out: LUCIFERASE INFECTION ASSAY - IC50",5.18 µM
same,IC90,,9.32 µM
Cc1cc(O)cc2c1C(=O)/C(=C/c1ccc(Cl)cc1)O2,IC50,"HEPG2TOX_HILL_SLOPE 11.8, HEPG2TOX_R_SQUARED 0.8, PBLUC_HILL_SLOPE 6.24, PBLUC_R_SQUARED 0.404, read-out: LUCIFERASE INFECTION ASSAY - IC50",5.83 µM
same,IC90,,8.29 µM
COC(=O)C1=C(C)N(c2cccc(C(F)(F)F)c2)C(=S)NC1c1ccc(O)c(OC)c1 (stereo not drawn),IC50,"HEPG2TOX_HILL_SLOPE 1.61, 1.73, HEPG2TOX_R_SQUARED 0.946, 0.571, PBLUC_HILL_SLOPE 8.66, 0.516, PBLUC_R_SQUARED 0.631, 0.614, read-out: LUCIFERASE INFECTION ASSAY - IC50",0.906 µM
same,IC90,,1.57 µM
Oc1ccc(Nc2nccc3[nH]c(-c4cccc(F)c4)cc23)cc1,IC50,"PBLUC_HILL_SLOPE 3.41, PBLUC_R_SQUARED 0.615, read-out: LUCIFERASE INFECTION ASSAY - IC50",4.27 µM
same,IC90,,8.12 µM
CC1C(c2ccccc2)N(C)C(c2ccccc2)CC1(O)c1ccc(F)cc1 (stereo not drawn),IC50,"PBLUC_HILL_SLOPE 3.61, PBLUC_R_SQUARED 0.228, read-out: LUCIFERASE INFECTION ASSAY - IC50",7.47 µM
same,IC90,,> 8.01 µM
